# Laboratory results from US20220362219A1, “RETINA REGENERATION THROUGH EPIGENETICS MANIPULATION” (Baylor College of Medicine, priority 2019, published 2022).
# “Also recorded” adds a separate entry of the source.
# How the values were obtained:
# [1] = system: wild-type control retina; test: Intravitreal injection in wild-type control retina (H&E); assay type: in vivo
# Description: (§1) FIGS. 1A-1C concern an example of retinal regeneration in Spata7-mutated (KO) retinal cells. (1A) One example of a timeline for studies, where the examples of timepoints are post-natal day 14, 21, and 34, respectively. (1B) Hematoxylin and eosin (H&E) staining for Spata7 KO mice versus wild-type control. Eyes were injected with SYC1127 (treated) eye compared to PBS-injected control. (1C) Immunofluorescence staining for Cone-rod homeobox protein (CRX, a marker for photoreceptor cells and bipolar cells); Glial fibrillary acidic protein (GFAP, a marker for Müller glial cells); and RNA Binding Protein, MRNA Processing Factor (RBPMS, a marker for retinal ganglion cells (RGC)) in Spata7 KO-treated eye (treated with SYC1127) and control eye (treated with PBS).
# (§2) H&E staining of all three neural layers of the retina is shown following intravitreal injection of SYC1127 in wild-type mice vs. Spata7 KO mutants.
# In this present example, one example of a potent Histone Acetylation Transferase inhibitor (HATi), the compound SYC1127, is administered by intravitreal injection in a retinal degeneration mouse model having a knockout mutation in Spata7. An example of an injection regimen is provided in FIG. 1A, in which there are multiple intravitreal injections. […]
# [2] = system: Spata7 mutant retina; test: Intravitreal injection in Spata7 knockout retinal degeneration mouse model (H&E, immunohistochemistry); assay type: in vivo
# Description: as §1, §2
# Immunohistochemistry using antibodies that bind Sox9 or GFAP, both markers of Müller glial cells, is provided for SYC1127-treated Spata7 KO mutants vs. PBS controls.
# In this present example, one example of a potent Histone Acetylation Transferase inhibitor (HATi), the compound SYC1127, is administered by intravitreal injection in a retinal degeneration mouse model having a knockout mutation in Spata7. An example of an injection regimen is provided in FIG. 1A, in which there are multiple intravitreal injections. […] To examine if these newly generated cells are indeed differentiated properly, immunohistochemistry (IHC) using antibodies against certain cell type-specific markers is performed. […] The number of regenerative cells is much higher than that of previously reported by others, making it useful for therapy.
# Retinal regeneration is induced through epigenomics manipulation, in particular embodiments. […] As at least one type of retinal cells, retinal ganglion cells are induced following administration of SYC1127.
# [3] = system: histone markers H3K27Ac and H3K9Me3 in the retina; test: Chromatin modification in the retina after intravitreal injection (antibody staining of histone markers); assay type: in vivo, mouse; details: FIG. 2
# Description: The outer nuclear layers (ONL) and the inner nuclear layers (INL) of the respective retina are shown. Markers related to reduced levels of histone acetylation (H3K27Ac) and increased levels of histone […] are identified with corresponding antibodies.
# Further evidence is provided that HATi are useful for chromatin modifications that lead to epigenomic manipulation, thereby leading to regeneration of retinal cells. […] Upon intravitreal injection of the compound SYC1127, there is reduction in the level of histone acetylation as expected, such as with H3K27Ac (an epigenetic modification to Histone H3 that is a mark that indicates the acetylation at the 27th lysine residue of the Histone H3 protein). At the same time, the level of chromatin-repressing histone markers, such as H3K9Me3, is increased.
smiles,measurement,setting,value
"c1cc(-c2ccc(-c3ncc(OCC4CCNCC4)nc3-c3ccc(-c4ccoc4)cc3)cc2)co1 [SYC1127, 2,3-bis(4-(furan-3-yl)phenyl)-5-(piperidin-4-ylmethoxy)pyrazine]",toxicity of injection of the drug,[1]; FIG. 1B,not toxic
same,change in wild-type control retina,"[1]; wild-type, FIG. 1B / FIG. 3",little change; also recorded: no changes are observed
same,migration of Müller glial cells,"[2]; Spata7 KO, IHC, FIG. 5",Migration of Müller glial cells from the INL to photoreceptor and retinal ganglion cell layers
same,number of Müller glial cells (Sox9 positive cells and GFAP staining),"[2]; Spata7 KO, IHC, FIG. 5",Increase in the number of Müller glial cells
same,thickness of neuronal layers vs uninjected Spata7 mutant retina,"[2]; intravitreal injection, H&E, FIG. 1B",thickening of all three neuronal layers
same,cell proliferation in Spata7 mutant retina,"[2]; intravitreal injection, H&E, FIG. 1B / FIG. 3",extensive cell proliferation; also recorded: proliferation of all three neural layers of the retina
same,Müller glia cell activation (GFAP staining),"[2]; intravitreal injection, IHC, FIG. 1C",massive elevated Müller glia cell activation
same,retinal ganglion cells (RBPMS staining),"[2]; intravitreal injection, IHC, FIG. 1C / FIG. 4",multiple layers of cells that are positive for retinal ganglion cells (RGC) are observed; also recorded: increase of cells in the RGC layer
same,regeneration of retinal neurons in degenerating retina,"[2]; intravitreal injection, overall conclusion",complete regeneration of retinal neurons
same,level of chromatin-repressing histone markers (H3K9Me3),[3],increased
same,level of histone acetylation (H3K27Ac),[3],reduction
